Laboratory results taken from patent publication EP1120414A1, “DISUBSTITUTED MALEIMIDE COMPOUNDS AND MEDICINAL UTILIZATION THEREOF” (Japan Tobacco Inc., priority 1998, dated 2000).

What was measured:
PKC β II = biological target: T1, PKC β II (Homo sapiens, UniProt P05771); assay: PKC enzyme assay (BIOTRAK Protein kinase C enzyme assay system, 32P-ATP phosphorylation of peptide […]); type: biochemical; conditions: for Ratio α/β: IC50 PKC α / IC50 PKC β II; for IC50: Protein Kinase C, Human Recombinant, test substance 1 nM-10 µM, 37°C, 15 minutes, read-out: Inhibition of PKC activity IC50 PKC β II
T1 construct: purchased CALBIOCHEM
Excerpt: The method for determining the PKC inhibitory activity of the compound of the present invention is explained in the following. Inasmuch as PKCβII is present in greater number in intravascular cells than PKCβI, PKCβII was mainly used here to test the enzyme activity.
(§1) As the reagent for enzyme assay, BIOTRAK Protein kinase C enzyme assay system (hereinafter the system, Amersham), and as the PKC enzyme standard product, Protein Kinase C, Human Recombinant (CALBIOCHEM) were purchased and used in the assay. A substrate mixture was prepared by mixing calcium buffer (12 mM calcium acetate, 50 mM Tris/HCl pH 7.5, 0.05% (w/v) sodium azide), Lipid (0.3 mg/ml La-phosphatidyl-L-serine, […] phorbol 12-myristate 13-acetate, 50 mM Tris/HCl pH 7.5, 0.05% (w/v) sodium azide), peptide buffer (900 µM peptide […]), 50 mM Tris/HCl pH 7.5, 0.05% (w/v) sodium azide), DTT buffer (30 mM dithiothreitol, 50 mM Tris/HCl pH 7.5, 0.05% (w/v) sodium azide), and magnesium ATP buffer (1.2 mM ATP, […] pH 7.4, 72 mM magnesium chloride) all attached to the system in a ratio of 1:1:1:1:0.8 and adding [ y -32P]ATP (Amersham, cat. […] The PKC enzyme standard product was diluted with an assay buffer (10 mM Hepes pH 7.4, 0.01% Triton X-100) to a concentration of 400 ng/ml and used as the enzyme solution. The substrate mixture and a test substance (diluted to the final concentration of 1 nM-10 µM with dimethyl sulfoxide (DMSO)) were mixed at a ratio of 20:1. The enzyme solution was added in the amount equivalent to the substrate mixture and mixed, which was followed by incubation at 37°C for 15 minutes. The reaction terminator (300 mM orthophosphoric acid containing carmosine red) attached to the system was added in the amount equivalent to the substrate mixture to end the reaction, and the reaction mixture was spotted on a phosphocellulose paper (Whatman, P-81), washed twice with 75 mM orthophosphoric acid and assayed for radioactivity by BAS2000 (Fuji film).
(§2) The ratio of the radioactivity of the addition of the test substance to the addition of DMSO was determined, and IC50 was calculated from inhibition at each concentration.

PKC α = biological target: T2, PKC α (Homo sapiens, UniProt P17252); assay: as above; type: biochemical; conditions: Protein Kinase C, Human Recombinant; test substance 1 nM-10 µM; 37°C, 15 minutes; read-out: Inhibition of PKC activity IC50 PKC α
T2 construct: purchased CALBIOCHEM
Protocol: as §1, §2

T1 sequence (P05771 other isoform, or with tags, fused parts or gaps): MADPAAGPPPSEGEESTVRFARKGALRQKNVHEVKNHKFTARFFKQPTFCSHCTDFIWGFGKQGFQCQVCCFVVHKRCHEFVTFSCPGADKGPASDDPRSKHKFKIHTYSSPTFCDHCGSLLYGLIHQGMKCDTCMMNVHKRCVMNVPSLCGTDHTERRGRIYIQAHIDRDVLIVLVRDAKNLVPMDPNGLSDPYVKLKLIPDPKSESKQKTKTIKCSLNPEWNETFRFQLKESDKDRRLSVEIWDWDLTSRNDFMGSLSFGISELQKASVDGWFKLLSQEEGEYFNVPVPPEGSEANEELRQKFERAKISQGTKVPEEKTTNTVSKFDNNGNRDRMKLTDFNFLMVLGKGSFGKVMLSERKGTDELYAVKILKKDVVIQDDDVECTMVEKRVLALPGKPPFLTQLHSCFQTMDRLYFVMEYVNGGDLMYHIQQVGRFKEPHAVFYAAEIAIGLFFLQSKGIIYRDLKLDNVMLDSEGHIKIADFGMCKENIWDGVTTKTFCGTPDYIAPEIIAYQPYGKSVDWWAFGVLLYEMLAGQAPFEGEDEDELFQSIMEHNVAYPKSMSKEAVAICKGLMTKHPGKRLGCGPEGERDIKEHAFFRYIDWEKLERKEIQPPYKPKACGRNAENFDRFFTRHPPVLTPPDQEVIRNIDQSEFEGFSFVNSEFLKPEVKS

Row | Structure (SMILES) | Ratio α/β (PKC β II) | IC50 (PKC β II) [nM] | IC50 (PKC α) [nM]
1 | CCN(CCCn1cc(C2=C(Nc3ccccc3)C(=O)NC2=O)c2ccccc21)Cc1ccncc1 [Example 2-18, 3-[1-{3-[N-ethyl-N-(4-pyridylmethyl)amino]propyl}-1H-indol-3-yl]-4-(phenylamino)-1H-pyrrole-2,5-dione] | 41 | 183 | 7530
2 | O=C1NC(=O)C(c2cn(CCCN3CCOCC3)c3ccccc23)=C1Nc1ccccc1 [Example 2-19, 3-[1-(3-morpholinopropyl)-1H-indol-3-yl]-4-(phenylamino)-1H-pyrrole-2,5-dione] | 72 | 17 | 1230
3 | O=C1NC(=O)C(c2cn(CCCN3CCCCC3)c3ccccc23)=C1Nc1ccccc1 [Example 2-20, 3-[1-(3-piperidinopropyl)-1H-indol-3-yl]-4-(phenylamino)-1H-pyrrole-2,5-dione] |  | 17 | 726
4 | O=C1NC(=O)C(c2cn(CCCN3CCSCC3)c3ccccc23)=C1Nc1ccccc1 [Example 2-21, 3-(phenylamino)-4-[1-(3-thiomorpholinopropyl)-1H-indol-3-yl]-1H-pyrrole-2,5-dione] | 46 | 17 | 773
5 | O=C1NC(=O)C(c2cn(CCCN3CCCC3)c3ccccc23)=C1Nc1ccccc1 [Example 2-22, 3-(phenylamino)-4-(1-(3-pyrrolidin-1-ylpropyl)-1H-indol-3-yl]-1H-pyrrole-2,5-dione] | 37 | 18 | 662
6 | NC(=O)C1CCCN1CCCn1cc(C2=C(Nc3ccccc3)C(=O)NC2=O)c2ccccc21 (stereo not drawn) [Example 2-24, 3-[1-{3-(2-carbamoylpyrrolidin-1-yl)propyl}-1H-indol-3-yl]-4-(phenylamino)-1H-pyrrole-2,5-dione] | 42 | 66 | 2750
7 | O=C1NC(=O)C(c2cn(CCCN3CCC(O)CC3)c3ccccc23)=C1Nc1ccccc1 [Example 2-25, 3-[1-{3-(4-hydroxypiperidino)propyl}-1H-indol-3-yl]-4-(phenylamino)-1H-pyrrole-2,5-dione] | 46 | 9 | 413
8 | CN1CCN(CCCn2cc(C3=C(Nc4ccccc4)C(=O)NC3=O)c3ccccc32)CC1 [Example 2-26, 3-[1-{3-(4-methylpiperazin-1-yl)propyl}-1H-indol-3-yl]-4-(phenylamino)-1H-pyrrole-2,5-dione] |  | 23 | 968
9 | O=C1NC(=O)C(c2cn(CCCCN3CCC(O)CC3)c3ccccc23)=C1Nc1cccc(Cl)c1 [Example 2-27, 3-[(3-chlorophenyl)amino]-4-[1-{4-(4-hydroxypiperidino)butyl}-1H-indol-3-yl]-1H-pyrrole-2,5-dione] | 37 | 26 | 973
10 | O=C1NC(=O)C(c2cn(CCCCCN3CCC(O)CC3)c3ccccc23)=C1Nc1ccccc1 [Example 2-28, 3-[1-{5-(4-hydroxypiperidino)pentyl}-1H-indol-3-yl]-4-(phenylamino)-1H-pyrrole-2,5-dione] | 43 | 25 | 1080
11 | CN1CCN(CCCCn2cc(C3=C(Nc4ccccc4)C(=O)NC3=O)c3ccccc32)CC1 [Example 2-29, 3-[1-{4-(4-methylpiperazin-1-yl)butyl}-1H-indol-3-yl]-4-(phenylamino)-1H-pyrrole-2,5-dione] | 75 | 25 | 1870
12 | O=C1NC(=O)C(c2cn(CCCN3CCC(N4CCCCC4)CC3)c3ccccc23)=C1Nc1ccccc1 [Example 2-31, 3-(phenylamino)-4-[1-{3-(4-piperidinopiperidino)propyl}-1H-indol-3-yl]-1H-pyrrole-2,5-dione] | 59 | 12 | 703

The remaining lines, values ahead:

Row | Ratio α/β (PKC β II) | IC50 (PKC β II) [nM] | IC50 (PKC α) [nM] | Structure (SMILES)
13 | 57 | 19 | 1080 | O=C1NC(=O)C(c2cn(CCCN3CCN(CCO)CC3)c3ccccc23)=C1Nc1ccccc1 [Example 2-32, 3-[1-{3-[4-(2-hydroxyethyl)piperazin-1-yl]propyl}-1H-indol-3-yl]-4-(phenylamino)-1H-pyrrole-2,5-dione]
14 | 68 | 10 | 676 | NC(=O)C1CCN(CCCn2cc(C3=C(Nc4ccccc4)C(=O)NC3=O)c3ccccc32)CC1 [Example 2-33, 3-[1-{3-(4-carbamoylpiperidino)propyl}-1H-indol-3-yl]-4-(phenylamino)-1H-pyrrole-2,5-dione]
15 | 57 | 15 | 851 | CN(C)C1CCN(CCCn2cc(C3=C(Nc4ccccc4)C(=O)NC3=O)c3ccccc32)CC1 [Example 2-34, 3-[1-{3-(4-dimethylaminopiperidino)propyl}-1H-indol-3-yl]-4-(phenylamino)-1H-pyrrole-2,5-dione]
16 | 41 | 95 | 3890 | O=C1NC(=O)C(c2cn(CCCS(=O)(=O)c3ccccc3)c3ccccc23)=C1Nc1ccccc1 [Example 2-35, 3-[1-{3-(phenylsulfonyl)propyl}-1H-indol-3-yl]-4-(phenylamino)-1H-pyrrole-2,5-dione]
17 |  | 5 | 331 | O=C1NC(=O)C(c2cn(CCCn3ccnc3)c3ccccc23)=C1Nc1ccccc1 [Example 2-36, 3-[1-(3-imidazol-1-ylpropyl)-1H-indol-3-yl]-4-(phenylamino)-1H-pyrrole-2,5-dione]
18 | 17 | 60 | > 1000 | O=C1NC(=O)C(c2cn(CCCn3cccn3)c3ccccc23)=C1Nc1ccccc1 [Example 2-37, 3-(phenylamino)-4-[1-(3-pyrazol-1-ylpropyl)-1H-indol-3-yl]-1H-pyrrole-2,5-dione]
19 | 25 | 40 | > 1000 | O=C1NC(=O)C(c2cn(CCCn3cncn3)c3ccccc23)=C1Nc1ccccc1 [Example 2-38, 3-(phenylamino)-4-[1-{3-(1,2,4-triazol-1-yl)propyl}-1H-indol-3-yl]-1H-pyrrole-2,5-dione]
20 | 17 | 21 | 354 | O=C1NC(=O)C(c2cn(CCCn3ccnc3)c3ccccc23)=C1Nc1cccc(Cl)c1 [Example 2-39, 3-[(3-chlorophenyl)amino]-4-[1-(3-imidazol-1-ylpropyl)-1H-indol-3-yl]-1H-pyrrole-2,5-dione]
21 | 41 | 19 | 770 | O=C1NC(=O)C(c2cn(CCCCn3ccnc3)c3ccccc23)=C1Nc1cccc(Cl)c1 [Example 2-40, 3-[(3-chlorophenyl)amino]-4-[1-(4-imidazol-1-ylbutyl)-1H-indol-3-yl]-1H-pyrrole-2,5-dione]
22 | 44 | 62 | 2740 | O=C1NC(=O)C(c2cn(CCCCCn3ccnc3)c3ccccc23)=C1Nc1ccccc1 [Example 2-41, 3-[1-(5-imidazol-1-ylpentyl)-1H-indol-3-yl]-4-(phenylamino)-1H-pyrrole-2,5-dione]
23 | 45 | 10 | 452 | Cc1nccn1CCCn1cc(C2=C(Nc3cccc(Cl)c3)C(=O)NC2=O)c2ccccc21 [Example 2-42, 3-[(3-chlorophenyl)amino]-4-[1-{3-(2-methylimidazol-1-yl)propyl}-1H-indol-3-yl]-1H-pyrrole-2,5-dione]
